Here are results for 33 compounds from patent US20230278996A1, “YKL-40 INHIBITORS AND THEIR THERAPEUTIC APPLICATIONS” (Molecure S.A., priority 2022, published 2023).

By IC50 is commonly meant the midpoint of a concentration-inhibition curve. The low end stands for inhibition by little substance, the high end for a need for much substance.

For this test, the target named is YKL-40 (Homo sapiens (Human), UniProt P36222). Briefly: YKL-40:4 assay, competitive chitin binding site AlphaScreen. The conditions noted are these: competition with biotinylated compound 4 (20 nM), YKL-40-histag 2.5 nM. On the technique in general: Bead proximity is the source of the signal in Alpha formats.

Structures can show the parent of a compound that is named as a salt.

Chain of YKL-40 (P36222 22-383): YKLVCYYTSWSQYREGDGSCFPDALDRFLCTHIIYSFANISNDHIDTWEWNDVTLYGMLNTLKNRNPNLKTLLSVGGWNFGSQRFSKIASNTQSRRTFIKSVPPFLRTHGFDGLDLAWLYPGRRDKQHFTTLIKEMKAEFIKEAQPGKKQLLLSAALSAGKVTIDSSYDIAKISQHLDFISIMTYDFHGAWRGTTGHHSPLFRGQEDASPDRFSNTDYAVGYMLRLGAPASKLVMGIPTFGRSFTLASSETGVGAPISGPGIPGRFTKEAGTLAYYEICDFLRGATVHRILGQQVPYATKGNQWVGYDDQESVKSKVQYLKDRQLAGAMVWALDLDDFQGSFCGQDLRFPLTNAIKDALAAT

`C[C@H](O)CN1C[C@H](Cc2ccc(Cl)cc2)N(C2CCN(c3ccccn3)CC2)C[C@@H]1C` [compound 104, (S)-1-((2S,5S)-5-(4-chlorobenzyl)-2-methyl-4-(1-(pyridin-2-yl)piperidin-4-yl)piperazin-1-yl)propan-2-ol 2,2,2-trifluoroacetate]: the IC50 was < 0.1 µM.

Consider `C[C@H](O)[C@H]1CN(C2CCN(c3ccccn3)CC2)[C@@H](Cc2ccc(Cl)cc2)CN1C` [compound 105, (S)-1-((2R,5S)-5-(4-chlorobenzyl)-1-methyl-4-(1-(pyridin-2-yl)piperidin-4-yl)piperazin-2-yl)ethan-1-ol 2,2,2-trifluoroacetate], for which the IC50 was < 0.1 µM.

Compound `CO[C@H](C)CN1C[C@H](Cc2ccc(Cl)cc2)N(C2CCN(c3ccccn3)CC2)C[C@@H]1C` [compound 107, (2S,5S)-2-(4-chlorobenzyl)-4-((R)-2-methoxypropyl)-5-methyl-1-(1-(pyridin-2-yl)piperidin-4-yl)piperazine 2,2,2-trifluoroacetate] had an IC50 of 0.1 to 1 µM.

`CO[C@@H]1CCN(C2CCN(c3ccccn3)CC2)[C@@H](Cc2ccc(Cl)cc2)C1` [compound 108, (2S,4R)-2-(4-chlorobenzyl)-4-methoxy-1′-(pyridin-2-yl)-1,4′-bipiperidine 2,2,2-trifluoroacetate]: the IC50 is < 0.1 µM.

`CO[C@H]1CCN(C2CCN(c3ccccn3)CC2)[C@@H](Cc2ccc(Cl)cc2)C1` [compound 109, (2S,4S)-2-(4-chlorobenzyl)-4-methoxy-1′-(pyridin-2-yl)-1,4′-bipiperidine 2,2,2-trifluoroacetate]: the IC50 was in the range of 0.1 to 1 µM.

`C[C@@H](O)[C@H]1CN(C2CCN(c3ccccn3)CC2)[C@@H](Cc2ccc(Cl)cc2)CN1C` [compound 110, (R)-1-((2R,5S)-5-(4-chlorobenzyl)-1-methyl-4-(1-(pyridin-2-yl)piperidin-4-yl)piperazin-2-yl)ethan-1-ol]: the IC50 was < 0.1 µM.

In turn, `C[C@H]1CN(C2CCN(c3cc(Br)ccn3)CC2)[C@@H](Cc2ccc(Cl)cc2)CO1` [compound 113, (2S,5S)-4-(1-(4-bromopyridin-2-yl)piperidin-4-yl)-5-(4-chlorobenzyl)-2-methylmorpholine 2,2,2-trifluoroacetate] registered an IC50 of 0.1 to 1 µM.

As to `C[C@H]1CN(C2CCN(c3ncccc3C(N)=O)CC2)[C@@H](Cc2ccc(Cl)cc2)CO1` [compound 114, 2-(4-((2S,5S)-5-(4-chlorobenzyl)-2-methylmorpholino)piperidin-1-yl)nicotinamide 2,2,2-trifluoroacetate], the IC50 was > 100 µM.

Regarding `C[C@H]1CN(C2CCN(c3cc(Cl)ccc3C#N)CC2)[C@@H](Cc2ccc(Cl)cc2)CO1` [compound 115, 4-chloro-2-(4-((2S,5S)-5-(4-chlorobenzyl)-2-methylmorpholino)piperidin-1-yl)benzonitrile 2,2,2-trifluoroacetate], the IC50 was > 100 µM.

Regarding `C[C@H]1CN(C2CCN(c3nccc4ccccc34)CC2)[C@@H](Cc2ccc(Cl)cc2)CO1` [compound 116, (2S,5S)-5-(4-chlorobenzyl)-4-(1-(isoquinolin-1-yl)piperidin-4-yl)-2-methylmorpholine 2,2,2-trifluoroacetate], the IC50 is > 100 µM.

For the compound `COC(=O)c1cccnc1N1CCC(N2C[C@H](C)OC[C@@H]2Cc2ccc(Cl)cc2)CC1` [compound 117, methyl 2-(4-((2S,5S)-5-(4-chlorobenzyl)-2-methylmorpholino)piperidin-1-yl)nicotinate 2,2,2-trifluoroacetate], the concentration for half-maximal inhibition (IC50) is > 100 µM.

With `C[C@H]1CN(C2CCN(c3c(F)cccc3C#N)CC2)[C@@H](Cc2ccc(Cl)cc2)CO1` [compound 118, 2-(4-((2S,5S)-5-(4-chlorobenzyl)-2-methylmorpholino)piperidin-1-yl)-3-fluorobenzonitrile 2,2,2-trifluoroacetate], the IC50 is > 100 µM.

On to `C[C@H]1CN(C2CCN(c3ccccc3C#N)CC2)[C@@H](Cc2ccc(Cl)cc2)CO1` [compound 119, 2-(4-((2S,5S)-5-(4-chlorobenzyl)-2-methylmorpholino)piperidin-1-yl)benzonitrile 2,2,2-trifluoroacetate], for which the IC50 is > 100 µM.

With `C[C@H]1CN(C2CCN(c3ncccc3CO)CC2)[C@@H](Cc2ccc(Cl)cc2)CO1` [compound 120, (2-(4-((2S,5S)-5-(4-chlorobenzyl)-2-methylmorpholino)piperidin-1-yl)pyridin-3-yl)methanol 2,2,2-trifluoroacetate], the IC50 is > 100 µM.

In the case of `COC(=O)c1ccnc(F)c1N1CCC(N2C[C@H](C)OC[C@@H]2Cc2ccc(Cl)cc2)CC1` [compound 121, methyl 3-(4-((2S,5S)-5-(4-chlorobenzyl)-2-methylmorpholino)piperidin-1-yl)-2-fluoroisonicotinate], the IC50 was > 100 µM.

As for `COC(=O)c1ccnc(N2CCC(N3C[C@H](C)OC[C@@H]3Cc3ccc(Cl)cc3)CC2)c1F` [compound 122, methyl 2-(4-((2S,5S)-5-(4-chlorobenzyl)-2-methylmorpholino)piperidin-1-yl)-3-fluoroisonicotinate], the IC50 is > 100 µM.

Consider `C[C@H]1CN(C2CCN(c3c(F)cccc3F)CC2)[C@@H](Cc2ccc(Cl)cc2)CO1` [compound 123, (2S,5S)-5-(4-chlorobenzyl)-4-(1-(2,6-difluorophenyl)piperidin-4-yl)-2-methylmorpholine 2,2,2-trifluoroacetate], for which the IC50 is > 100 µM.

As to `COC(=O)c1ccnc(N2CCC(N3C[C@H](C)OC[C@@H]3Cc3ccc(Cl)cc3)CC2)c1` [compound 124, methyl 2-(4-((2S,5S)-5-(4-chlorobenzyl)-2-methylmorpholino)piperidin-1-yl)isonicotinate], the IC50 was > 100 µM.

Consider `C[C@H]1CN(C2CCN(c3cc(C(=O)O)ccn3)CC2)[C@@H](Cc2ccc(Cl)cc2)CO1` [compound 125, 2-(4-((2S,5S)-5-(4-chlorobenzyl)-2-methylmorpholino)piperidin-1-yl)isonicotinic acid 2,2,2-trifluoroacetate], for which the IC50 was > 100 µM.

Consider `C[C@H]1CN(C2CCN(c3ccccc3F)CC2)[C@@H](Cc2ccc(Cl)cc2)CO1` [compound 126, (2S,5S)-5-(4-chlorobenzyl)-4-(1-(2-fluorophenyl)piperidin-4-yl)-2-methylmorpholine 2,2,2-trifluoroacetate], for which the IC50 is > 100 µM.

`C[C@H]1CN(C2CCN(c3cccc(F)c3)CC2)[C@@H](Cc2ccc(Cl)cc2)CO1` [compound 127, (2S,5S)-5-(4-chlorobenzyl)-4-(1-(3-fluorophenyl)piperidin-4-yl)-2-methylmorpholine 2,2,2-trifluoroacetate]: the IC50 is > 100 µM.

`C[C@H]1CN(C2CCN(c3nccc(C(=O)O)c3F)CC2)[C@@H](Cc2ccc(Cl)cc2)CO1` [compound 128, 2-(4-((2S,5S)-5-(4-chlorobenzyl)-2-methylmorpholino)piperidin-1-yl)-3-fluoroisonicotinic acid 2,2,2-trifluoroacetate]: the 50% inhibitory concentration (IC50) is > 100 µM.

For the compound `C[C@H]1CN(C2CCN(c3c(C(=O)O)ccnc3F)CC2)[C@@H](Cc2ccc(Cl)cc2)CO1` [compound 129, 3-(4-((2S,5S)-5-(4-chlorobenzyl)-2-methylmorpholino)piperidin-1-yl)-2-fluoroisonicotinic acid], the concentration for half-maximal inhibition (IC50) is > 100 µM.

For the compound `C[C@H]1CN(C2CCN(c3cc(CO)ccn3)CC2)[C@@H](Cc2ccc(Cl)cc2)CO1` [compound 130, (2-(4-((2S,5S)-5-(4-chlorobenzyl)-2-methylmorpholino)piperidin-1-yl)pyridin-4-yl)methanol 2,2,2-trifluoroacetate], the IC50 was > 100 µM.

Regarding `C[C@H]1CN(C2CCN(c3cc(C(C)(C)O)ccn3)CC2)[C@@H](Cc2ccc(Cl)cc2)CO1` [compound 131, 2-(2-(4-((2S,5S)-5-(4-chlorobenzyl)-2-methylmorpholino)piperidin-1-yl)pyridin-4-yl)propan-2-ol 2,2,2-trifluoroacetate], the IC50 is > 100 µM.

As to `C[C@H]1CN(C2CCN(c3cc(C(N)=O)ccn3)CC2)[C@@H](Cc2ccc(Cl)cc2)CO1` [compound 132, 2-(4-((2S,5S)-5-(4-chlorobenzyl)-2-methylmorpholino)piperidin-1-yl)isonicotinamide 2,2,2-trifluoroacetate], the half-inhibitory concentration (IC50) is > 100 µM.

With `Cc1cccc(N2CCC(N3C[C@H](C)OC[C@@H]3Cc3ccc(Cl)cc3)CC2)n1` [compound 135, (2S,5S)-5-(4-chlorobenzyl)-2-methyl-4-(1-(6-methylpyridin-2-yl)piperidin-4-yl)morpholine hydrochloride], the IC50 was > 100 µM.

Regarding `Cc1ccc(N2CCC(N3C[C@H](C)OC[C@@H]3Cc3ccc(Cl)cc3)CC2)nc1` [compound 136, (2S,5S)-5-(4-chlorobenzyl)-2-methyl-4-(1-(5-methylpyridin-2-yl)piperidin-4-yl)morpholine hydrochloride], the IC50 was > 100 µM.

Regarding `C[C@H]1CN(C2CCN(c3cc(C(F)(F)F)ncn3)CC2)[C@@H](Cc2ccc(Cl)cc2)CO1` [compound 145, (2S,5S)-5-(4-chlorobenzyl)-2-methyl-4-(1-(6-(trifluoromethyl)pyrimidin-4-yl)piperidin-4-yl)morpholine hydrochloride], the IC50 is > 100 µM.

In turn, `C[C@H]1CN(C2CCN(c3nccc(C(F)(F)F)n3)CC2)[C@@H](Cc2ccc(Cl)cc2)CO1` [compound 146, (2S,5S)-5-(4-chlorobenzyl)-2-methyl-4-(1-(4-(trifluoromethyl)pyrimidin-2-yl)piperidin-4-yl)morpholine hydrochloride] came in with an IC50 of 1 to 10 µM.

For `O=C1COC[C@H](Cc2ccc(Cl)cc2)N1C1CCN(c2ccccn2)CC1` [compound 147, (S)-5-(4-chlorobenzyl)-4-(1-(pyridin-2-yl)piperidin-4-yl)morpholin-3-one hydrochloride], the IC50 was > 100 µM.

Compound `CN1C[C@H](Cc2ccc(Cl)cc2)N(C2CCN(c3ccccn3)CC2)CC12CCC2` [compound 148, (S)-7-(4-chlorobenzyl)-5-methyl-8-(1-(pyridin-2-yl)piperidin-4-yl)-5,8-diazaspiro[3.5]nonane hydrochloride] returned an IC50 of 0.1 to 1 µM.

Consider `O=C1NCCN(C2CCN(c3ccccn3)CC2)[C@H]1Cc1ccc(Cl)cc1` [compound 149, (S)-3-(4-chlorobenzyl)-4-(1-(pyridin-2-yl)piperidin-4-yl)piperazin-2-one 2,2,2-trifluoroacetate], for which the IC50 is > 100 µM.
